Assays:
Assay type in all cases: biochemical
BRK = BRK (Homo sapiens, UniProt Q13882); assay: Kinase panel (140 human kinases)
Procedure: (§1) BAY-3827 and BAY-974 were assayed against a 140-human kinase panel at 0.1 μM and at 1 μM (BAY-3827) concentration in a [γ-^33P] ATP–based radioactive filter binding assay ([31], [65]) setup in duplicates with reported mean remaining kinase percentage activity alongside SD (table S1). Assays were performed at either 5, 20, or 50 μM ATP to be at or below the Michaelis constant for ATP for each enzyme and conducted by the services offered by the International Centre for Kinase Profiling at MRC Protein Phosphorylation and Ubiquitylation Unit, University of Dundee (https://www.kinase-screen.mrc.ac.uk/services/premier-screen).

BTK = BTK (Homo sapiens, UniProt Q06187); assay: Kinase panel (140 human kinases)
Procedure: as §1

CAMK1 = CAMK1 (Homo sapiens, UniProt Q14012); assay: Kinase panel (140 human kinases)
Procedure: as §1

CDK9-Cyclin T1 = CDK9-Cyclin T1 (Homo sapiens, UniProt P50750); assay: Kinase panel (140 human kinases)
Procedure: as §1

CK2 = CK2 (Homo sapiens, UniProt P68400); assay: Kinase panel (140 human kinases)
Procedure: as §1

CSK = CSK (Homo sapiens, UniProt P41240); assay: Kinase panel (140 human kinases)
Procedure: as §1

DDR2 = DDR2 (Homo sapiens, UniProt Q16832); assay: Kinase panel (140 human kinases)
Procedure: as §1

EF2K = EF2K (Homo sapiens, UniProt O00418); assay: Kinase panel (140 human kinases)
Procedure: as §1

EPH-B3 = EPH-B3 (Homo sapiens, UniProt P54753); assay: Kinase panel (140 human kinases)
Procedure: as §1

ERK2 = ERK2 (Homo sapiens, UniProt P28482); assay: Kinase panel (140 human kinases)
Procedure: as §1

IGF-1R = IGF-1R (Homo sapiens, UniProt P08069); assay: Kinase panel (140 human kinases)
Procedure: as §1

OSR1 = OSR1 (Homo sapiens, UniProt O95747); assay: Kinase panel (140 human kinases)
Procedure: as §1

PRK2 = PRK2 (Homo sapiens, UniProt Q16513); assay: Kinase panel (140 human kinases)
Procedure: as §1

RIPK2 = RIPK2 (Homo sapiens, UniProt O43353); assay: Kinase panel (140 human kinases)
Procedure: as §1

SIK3 = SIK3 (Homo sapiens, UniProt Q9Y2K2); assay: Kinase panel (140 human kinases)
Procedure: as §1

SRPK1 = SRPK1 (Homo sapiens, UniProt Q96SB4); assay: Kinase panel (140 human kinases)
Procedure: as §1

STK33 = STK33 (Homo sapiens, UniProt Q9BYT3); assay: Kinase panel (140 human kinases)
Procedure: as §1

TAK1 = target: T1, TAK1 (Homo sapiens, UniProt O43318); assay: Kinase panel (140 human kinases)
T1 sequence (O43318 1-303 limits assumed): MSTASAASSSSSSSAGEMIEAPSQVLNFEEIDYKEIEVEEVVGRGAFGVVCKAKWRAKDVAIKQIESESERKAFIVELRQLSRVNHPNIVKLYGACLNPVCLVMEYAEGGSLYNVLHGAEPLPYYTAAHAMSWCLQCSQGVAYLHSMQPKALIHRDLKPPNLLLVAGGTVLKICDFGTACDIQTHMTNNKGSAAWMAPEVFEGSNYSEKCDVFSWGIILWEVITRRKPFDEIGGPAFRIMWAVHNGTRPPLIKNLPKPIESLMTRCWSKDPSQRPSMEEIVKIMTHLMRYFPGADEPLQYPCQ
Procedure: as §1

TESK1 = TESK1 (Homo sapiens, UniProt Q15569); assay: Kinase panel (140 human kinases)
Procedure: as §1

TIE2 = TIE2 (Homo sapiens, UniProt Q02763); assay: Kinase panel (140 human kinases)
Procedure: as §1

TSSK1 = TSSK1 (Homo sapiens, UniProt Q9BXA7); assay: Kinase panel (140 human kinases)
Procedure: as §1

TTBK1 = TTBK1 (Homo sapiens, UniProt Q5TCY1); assay: Kinase panel (140 human kinases)
Procedure: as §1

TTBK2 = TTBK2 (Homo sapiens, UniProt Q6IQ55); assay: Kinase panel (140 human kinases)
Procedure: as §1

CaMKK2 = target: T2, CaMKK2 (Homo sapiens, UniProt Q96RR4); assay: Cell-free CaMKK2 kinase assay (CaMKKtide); conditions: increasing concentrations, 0 to 1 μM
T2 construct: made in house; host or cells: HEK293 (transient transfection, anti-FLAG immunoprecipitate)
Procedure: Heterotrimeric human AMPK FLAG- α1β1γ1, FLAG- α2β1γ1, and FLAG- α2β2γ1, as well as human FLAG-CaMKK2 and FLAG-ULK1, were produced in mammalian HEK293 cells as described ([66], [67]). For AMPK expression, the cells were triply transfected at 60% confluency using FuGene HD (Roche Applied Science) and 1 μg of pcDNA3 plasmid expression constructs for AMPK Flag-α1, β1-Myc, β2-Myc, and HA-γ1. For CaMKK2 expression, the cells were transfected with 1 μg of pcDNA3 Flag-CaMKK2 plasmid. For ULK1 expression, the cells were transfected with […] of pcDNA3 FLAG-ULK1 plasmid. After 48 hours, the transfected cells were harvested by rinsing with ice-cold PBS, followed by rapid lysis using 500 μl of lysis buffer. AMPK, CaMKK2, and ULK1 kinase activities were determined by phosphorylation of synthetic peptide substrates: SAMS (HMRSAMSGLHLVKRR), CaMKKtide ([…]), and S108tide. (KLPLTRSHNNFVARRR), respectively. Briefly, recombinant AMPK, CaMKK2, or ULK1 were immunoprecipitated from 10 μg of transfected cultured cell lysate using 10 μl of anti-FLAG M2 agarose beads [50% (v/v)] […] Radioactivity was quantified by liquid scintillation counting. […]

[1] = 1 μM, cross-referenced with screen data of ref 37, read-out: activity remaining after treatment

Chain of TTBK1 (Q5TCY1 whole entry): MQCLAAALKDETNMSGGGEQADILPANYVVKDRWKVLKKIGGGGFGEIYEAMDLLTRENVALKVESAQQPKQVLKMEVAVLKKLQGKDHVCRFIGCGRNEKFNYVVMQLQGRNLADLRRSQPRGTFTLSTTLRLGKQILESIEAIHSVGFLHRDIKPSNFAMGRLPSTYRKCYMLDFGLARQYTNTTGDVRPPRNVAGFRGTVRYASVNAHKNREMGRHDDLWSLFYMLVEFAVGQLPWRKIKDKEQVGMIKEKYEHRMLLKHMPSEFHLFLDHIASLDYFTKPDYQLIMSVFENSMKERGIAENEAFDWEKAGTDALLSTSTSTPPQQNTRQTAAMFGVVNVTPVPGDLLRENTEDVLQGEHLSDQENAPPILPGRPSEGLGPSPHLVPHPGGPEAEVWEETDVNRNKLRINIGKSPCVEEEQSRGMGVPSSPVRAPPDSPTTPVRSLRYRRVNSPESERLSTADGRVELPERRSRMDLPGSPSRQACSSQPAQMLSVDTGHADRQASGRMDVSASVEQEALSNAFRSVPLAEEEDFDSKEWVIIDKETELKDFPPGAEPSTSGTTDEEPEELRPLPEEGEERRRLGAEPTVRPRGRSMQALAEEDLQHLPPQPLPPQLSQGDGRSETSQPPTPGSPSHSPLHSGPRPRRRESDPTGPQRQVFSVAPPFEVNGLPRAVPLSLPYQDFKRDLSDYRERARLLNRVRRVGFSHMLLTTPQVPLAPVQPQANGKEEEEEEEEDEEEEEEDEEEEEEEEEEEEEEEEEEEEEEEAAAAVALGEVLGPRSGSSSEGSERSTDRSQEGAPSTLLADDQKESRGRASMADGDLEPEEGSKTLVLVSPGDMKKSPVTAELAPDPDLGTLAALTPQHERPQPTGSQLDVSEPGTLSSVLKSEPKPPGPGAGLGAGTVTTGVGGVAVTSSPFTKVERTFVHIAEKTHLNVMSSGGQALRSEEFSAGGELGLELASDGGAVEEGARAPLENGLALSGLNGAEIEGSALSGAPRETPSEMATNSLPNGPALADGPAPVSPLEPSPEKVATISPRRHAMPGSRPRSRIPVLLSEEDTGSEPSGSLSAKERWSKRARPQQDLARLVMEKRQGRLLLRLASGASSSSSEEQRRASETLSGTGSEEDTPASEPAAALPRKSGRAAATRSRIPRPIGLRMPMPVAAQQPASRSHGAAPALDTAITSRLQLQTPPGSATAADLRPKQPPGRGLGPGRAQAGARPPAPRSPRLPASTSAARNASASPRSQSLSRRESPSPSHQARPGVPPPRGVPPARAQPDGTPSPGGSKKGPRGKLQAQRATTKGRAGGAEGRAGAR
Chain of CSK (P41240 whole entry): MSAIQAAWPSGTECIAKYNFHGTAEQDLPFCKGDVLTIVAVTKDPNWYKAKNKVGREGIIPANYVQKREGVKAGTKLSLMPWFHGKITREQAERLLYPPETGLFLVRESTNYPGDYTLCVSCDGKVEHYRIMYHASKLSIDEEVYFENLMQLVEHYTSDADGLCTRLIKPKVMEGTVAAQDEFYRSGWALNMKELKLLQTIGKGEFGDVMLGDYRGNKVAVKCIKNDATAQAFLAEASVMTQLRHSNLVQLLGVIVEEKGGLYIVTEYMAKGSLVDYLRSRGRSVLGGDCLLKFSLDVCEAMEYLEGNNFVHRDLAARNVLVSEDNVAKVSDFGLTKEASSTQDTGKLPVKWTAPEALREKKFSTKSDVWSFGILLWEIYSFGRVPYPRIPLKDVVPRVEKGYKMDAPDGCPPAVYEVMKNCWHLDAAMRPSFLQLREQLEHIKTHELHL
Chain of BRK (Q13882 whole entry): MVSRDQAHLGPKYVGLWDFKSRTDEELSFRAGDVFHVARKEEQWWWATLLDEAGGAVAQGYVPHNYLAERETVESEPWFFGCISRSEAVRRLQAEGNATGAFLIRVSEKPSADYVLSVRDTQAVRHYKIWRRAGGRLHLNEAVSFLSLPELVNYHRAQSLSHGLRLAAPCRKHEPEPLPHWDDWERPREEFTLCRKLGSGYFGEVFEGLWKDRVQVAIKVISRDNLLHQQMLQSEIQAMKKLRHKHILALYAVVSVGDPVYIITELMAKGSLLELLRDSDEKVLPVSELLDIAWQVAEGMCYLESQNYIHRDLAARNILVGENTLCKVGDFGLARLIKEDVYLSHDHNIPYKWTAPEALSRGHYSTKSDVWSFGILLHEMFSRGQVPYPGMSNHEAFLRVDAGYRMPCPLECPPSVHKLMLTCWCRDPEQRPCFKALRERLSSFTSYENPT
Chain of STK33 (Q9BYT3 whole entry): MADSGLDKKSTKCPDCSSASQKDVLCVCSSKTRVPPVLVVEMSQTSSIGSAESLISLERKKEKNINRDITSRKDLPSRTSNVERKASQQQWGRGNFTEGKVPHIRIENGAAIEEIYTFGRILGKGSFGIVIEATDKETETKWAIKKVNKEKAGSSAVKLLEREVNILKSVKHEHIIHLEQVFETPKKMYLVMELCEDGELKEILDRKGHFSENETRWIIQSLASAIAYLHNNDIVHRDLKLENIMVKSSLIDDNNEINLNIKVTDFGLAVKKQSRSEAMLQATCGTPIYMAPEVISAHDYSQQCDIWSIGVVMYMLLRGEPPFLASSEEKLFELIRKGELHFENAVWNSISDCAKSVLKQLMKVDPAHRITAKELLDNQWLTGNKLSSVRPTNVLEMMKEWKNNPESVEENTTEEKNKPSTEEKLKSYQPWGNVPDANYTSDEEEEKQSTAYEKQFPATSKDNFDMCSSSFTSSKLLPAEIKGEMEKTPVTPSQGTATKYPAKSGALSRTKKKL
Chain of PRK2 (Q16513 whole entry): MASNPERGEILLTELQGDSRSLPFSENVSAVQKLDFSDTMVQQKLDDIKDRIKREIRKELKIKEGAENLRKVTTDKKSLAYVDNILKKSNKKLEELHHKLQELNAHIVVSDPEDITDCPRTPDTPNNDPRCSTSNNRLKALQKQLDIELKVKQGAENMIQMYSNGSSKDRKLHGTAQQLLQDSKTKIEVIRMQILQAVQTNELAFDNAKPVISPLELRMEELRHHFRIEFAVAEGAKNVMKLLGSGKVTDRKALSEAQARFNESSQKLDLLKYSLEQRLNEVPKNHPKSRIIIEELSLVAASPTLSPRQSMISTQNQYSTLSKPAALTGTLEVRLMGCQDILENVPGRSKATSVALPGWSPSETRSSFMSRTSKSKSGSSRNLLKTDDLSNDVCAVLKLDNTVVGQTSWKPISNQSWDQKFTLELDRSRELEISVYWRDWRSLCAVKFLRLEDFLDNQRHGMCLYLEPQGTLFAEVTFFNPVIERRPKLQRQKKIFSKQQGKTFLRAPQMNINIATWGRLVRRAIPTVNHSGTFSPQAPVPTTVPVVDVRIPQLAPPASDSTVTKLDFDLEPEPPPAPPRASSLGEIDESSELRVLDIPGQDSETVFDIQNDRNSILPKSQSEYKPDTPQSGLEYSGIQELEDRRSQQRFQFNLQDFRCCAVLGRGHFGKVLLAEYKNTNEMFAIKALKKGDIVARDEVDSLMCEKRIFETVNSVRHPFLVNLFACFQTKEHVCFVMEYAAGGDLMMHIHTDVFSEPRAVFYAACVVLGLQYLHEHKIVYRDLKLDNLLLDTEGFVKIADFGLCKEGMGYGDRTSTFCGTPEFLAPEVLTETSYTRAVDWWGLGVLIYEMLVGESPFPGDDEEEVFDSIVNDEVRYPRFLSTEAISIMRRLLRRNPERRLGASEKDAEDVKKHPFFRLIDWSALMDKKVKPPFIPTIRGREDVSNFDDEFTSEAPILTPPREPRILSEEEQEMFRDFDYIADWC
Chain of OSR1 (O95747 whole entry): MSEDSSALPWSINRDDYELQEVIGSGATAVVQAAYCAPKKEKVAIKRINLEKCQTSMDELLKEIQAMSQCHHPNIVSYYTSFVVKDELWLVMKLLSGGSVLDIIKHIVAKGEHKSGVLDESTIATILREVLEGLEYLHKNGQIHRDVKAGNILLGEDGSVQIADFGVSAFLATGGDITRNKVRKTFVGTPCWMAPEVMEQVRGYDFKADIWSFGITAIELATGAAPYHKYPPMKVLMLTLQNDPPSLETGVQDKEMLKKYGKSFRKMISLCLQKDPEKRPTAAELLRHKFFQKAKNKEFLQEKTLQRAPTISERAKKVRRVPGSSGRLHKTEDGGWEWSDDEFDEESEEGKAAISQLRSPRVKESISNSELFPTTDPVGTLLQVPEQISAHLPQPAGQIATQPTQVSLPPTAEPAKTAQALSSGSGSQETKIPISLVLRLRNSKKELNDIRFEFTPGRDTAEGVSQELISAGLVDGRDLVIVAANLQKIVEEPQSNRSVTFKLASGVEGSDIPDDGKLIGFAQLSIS
Chain of ERK2 (P28482 whole entry): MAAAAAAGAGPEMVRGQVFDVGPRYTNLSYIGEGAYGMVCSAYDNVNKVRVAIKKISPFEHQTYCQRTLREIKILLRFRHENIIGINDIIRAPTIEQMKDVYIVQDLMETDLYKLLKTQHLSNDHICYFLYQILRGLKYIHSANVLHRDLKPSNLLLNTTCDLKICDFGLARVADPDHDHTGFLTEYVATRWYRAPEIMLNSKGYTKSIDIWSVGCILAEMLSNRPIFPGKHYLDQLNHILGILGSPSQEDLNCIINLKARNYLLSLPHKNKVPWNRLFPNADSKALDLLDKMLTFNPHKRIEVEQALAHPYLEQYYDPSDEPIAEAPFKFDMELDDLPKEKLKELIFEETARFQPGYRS
Chain of TSSK1 (Q9BXA7 whole entry): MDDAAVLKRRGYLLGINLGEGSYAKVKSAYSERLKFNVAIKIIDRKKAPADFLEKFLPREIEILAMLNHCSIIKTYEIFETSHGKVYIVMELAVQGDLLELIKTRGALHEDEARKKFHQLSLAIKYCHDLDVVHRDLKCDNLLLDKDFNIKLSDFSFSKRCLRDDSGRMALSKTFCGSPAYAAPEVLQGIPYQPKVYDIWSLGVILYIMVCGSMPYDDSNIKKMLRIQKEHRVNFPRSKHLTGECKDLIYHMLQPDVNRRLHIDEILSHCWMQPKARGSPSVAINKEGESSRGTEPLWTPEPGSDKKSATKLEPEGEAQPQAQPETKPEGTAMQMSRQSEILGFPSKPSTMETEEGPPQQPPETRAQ

Row | Compound | remaining activity at 0.1 µM (BRK) [%] | remaining activity at 0.1 µM (BTK) [%] | remaining activity at 0.1 µM (CAMK1) [%] | remaining activity at 0.1 µM (CDK9-Cyclin T1) [%] | remaining activity at 0.1 µM (CK2) [%] | remaining activity at 0.1 µM (CSK) [%] | remaining activity at 0.1 µM (DDR2) [%] | remaining activity at 0.1 µM (EF2K) [%] | remaining activity at 0.1 µM (EPH-B3) [%] | remaining activity at 0.1 µM (ERK2) [%] | remaining activity at 0.1 µM (IGF-1R) [%] | remaining activity at 0.1 µM (OSR1) [%] | remaining activity at 0.1 µM (PRK2) [%] | remaining activity at 0.1 µM (RIPK2) [%] | remaining activity at 0.1 µM (SIK3) [%] | remaining activity at 0.1 µM (SRPK1) [%] | remaining activity at 0.1 µM (STK33) [%] | remaining activity at 0.1 µM (TAK1) [%] | remaining activity at 0.1 µM (TESK1) [%] | remaining activity at 0.1 µM (TIE2) [%] | also measured
1 | CC1=C(C#N)C(c2ccc3c(c2)c(NC(=O)c2ccccc2C)nn3C)C(C#N)=C(C)N1 [BAY-974, N-[5-(3,5-dicyano-2,6-dimethyl-1,4-dihydropyridin-4-yl)-1-methylindazol-3-yl]-2-methylbenzamide] | 70 | 94 | 78 | 114 | 79 | 123 | 89 | 119 | 119 | 110 | 147 | 109 | 83 | 108 | 81 | 97 | 82 | 93 | 88 | 103 | remaining activity at 0.1 µM (TSSK1): 55%; remaining activity at 0.1 µM (TTBK1): 104%; remaining activity at 0.1 µM (TTBK2): 91%; inhibitory effect on kinase activity (CaMKK2): no inhibitory effect
2 | CCc1ccccc1C(=O)Nc1n[nH]c2c(C)c(F)c(C3C(C#N)=C(C)N(C)C(C)=C3C#N)cc12 [BAY-3827, N-[5-(3,5-dicyano-1,2,6-trimethyl-4H-pyridin-4-yl)-6-fluoro-7-methyl-1H-indazol-3-yl]-2-ethylbenzamide] | 83 | 85 | 80 | 97 | 85 | 79 | 80 | 91 | 84 | 116 | 67 | 111 | 88 | 102 | 99 | 111 | 94 | 118 | 70 | 69 | remaining activity at 1 µM (TAK1; [1]): ≥ 99%; remaining activity at 0.1 µM (TSSK1): 88%; remaining activity at 0.1 µM (TTBK1): 101%; remaining activity at 1 µM (TTBK1; [1]): ≥ 99%; remaining activity at 0.1 µM (TTBK2): 93%; inhibitory effect on kinase activity (CaMKK2): no inhibitory effect
